By GI50 is commonly meant the concentration giving 50% growth inhibition.

Data on one molecule can be found in PMC6193938, “Characterization of a novel AICARFT inhibitor which potently elevates ZMP and has anti-tumor activity in murine models” (Scientific Reports, 2018).

Read-outs that look alike come from different tables or passages of the source.

In this assay the test system is NCI-H460 (lung). Description: Low folate & high folate in vitro proliferation assay (Alamar Blue). Format: cell-based, human. The note with it: for GI50: Homo sapiens. The method, then:
Cells lines were acquired from cell banks, see supplemental material, grown using the cell banks recommended culture conditions (Supplemental Table 3). In some experiments noted “low folate” the cells were washed and grown in folate free RPMI-1640 media (Gibco #27016-021) supplemented with 5 ml 1 M Hepes, 5 ml 100 mM Na pyruvate, 2.5 mg/ml glucose and 10% defined FBS (Hyclone #SH30070) per 500 mL media for 5–7 days to deplete intracellular folate levels prior to the start of the experiment. Where noted, cells were maintained in complete “high folate” RPMI-1640 media (ATCC #30-2001) with 10% defined FBS to contrast with the low folate conditions.
Cells were cultured using recommended culture conditions unless noted otherwise (Supplemental Table 3). Cells were plated, dosed with compound and incubated at 37 °C for approximately 2 doubling times as determined for each cell line. Cell Titer Glo (Promega) assay was used to measure proliferation according to manufacturer’s recommendations by measuring luminescence with Flexstation3 (Molecular Devices) with 500 ms integration time. […] The % response was fit to a four-parameter logistic equation using ACTIVITYBASE 4.0 to determine the absolute IC50 values.
For a limited number of cell lines, compound dosing was performed under high or low folate conditions with cell viability being determined with Alamar Blue rather than an ATP dependent assay. Cells were plated and treated as described above. Proliferation was measured using Alamar Blue Cell Viability Reagent (Invitrogen), and read after approximately 1.5–4 hours incubation at 37 °C on the Envision plate reader (Perkin Elmer) with excitation at 570 nm and emission at 585 nm. The % inhibition for each sample was calculated and fit as described above.
A general note: Alamar Blue is a resazurin reagent that responds to reducing activity.

As to `O=c1[nH]ccc2cc(F)c(NS(=O)(=O)c3ccc(N4CC[C@@H](O)C4)s3)cc12` [LSN3213128, N-(6-Fluoro-1-oxo-1,2-dihydroisoquinolin-7-yl)-5-[(3R)-3-hydroxypyrrolidin-1-yl]thiophene-2-sulfonamide], the “anti-proliferative effects on hypoxanthine supplementation” value (32 μM hypoxanthine) is given as “completely rescued”. In addition, the GI50 runs as follows: (RPMI media, read-out: Alamar Blue GI50 Regular folate) 3.47 ± 2.09 µM; (low folate RPMI media, read-out: Alamar Blue GI50 Low folate) 0.0164 ± 0.0051 µM.
